# Data as given in patent publication US10913972B2, “5,5-disubstituted luciferins and their use in luciferase-based assays” (Promega Corporation, priority 2016, dated 2021).
# Entries after “also recorded” stand apart in the source; their conditions may differ.
# Experiments:
# UltraGlo luciferase = test: RLU of 5,5-disubstituted luciferin analogs normalized to racemic luciferins (Table 1); assay type: biochemical; conditions: normalized to 1 mM racemic luciferins under identical conditions
# Description: Further tests were conducted at various substrate concentrations in the presence of sub-saturating D-Luciferin as a means to compare the binding affinity of the substrates. Solutions of 0.005 mg/ml Click Beetle-Green luciferase (CBG) or UltraGlo luciferase were prepared in Bright-Glo™ assay buffer (Promega E263A) with 3 mM ATP. A 2 mM solution of each substrate was then prepared in water containing D-Luciferin (sub-saturating). Each substrate+D-Luciferin was two-fold serially diluted in luciferin free water. A sample of 50 μL of each substrate dilution was combined with 50 μL of the enzyme solution. Samples were incubated at room temperature for one minute, and luminescence was measured on a GLOMAX® Multi+ plate luminometer. […] (FIG. 5A-F). RLU values for certain representative compounds (normalized to racemic luciferins under identical conditions) are provided in Table 1 above. For certain representatative compounds, substrate titration tests were performed using procedures as described herein without comparison to luciferins, therefore providing RLU values not normalized to those of luciferins.
# (§1) To determine if luciferin analogs with substitutions at the 5,5 position could be substrates for UltraGlo™ luciferase, tests were performed with analogs containing various di-substitutions of alkyl groups and closed ring structures in luminescence assays. A solution of 0.005 mg/ml UltraGlo™ luciferase (Promega Corp) prepared in 1×TBS+1% Prionex was combined with 0.5 mM ATP in Bright-Glo™ assay buffer (Promega E263A). All substrates were diluted separately in DMSO to 20 mM. After a 30-minute incubation at room temperature, diluted substrate was added to 1 mM final concentration in the reaction and mixed by pipetting. Reactions were further incubated at room temperature for 1 minute, and luminescence measured on a GLOMAX® Multi+ plate luminometer.
# UltraGlo™ luciferase = test: Luminescence assay of 5,5-substituted analogs as substrates for UltraGlo™ luciferase (FIG. 7); assay type: biochemical; conditions: 1 mM substrate, 0.005 mg/ml enzyme, 0.5 mM ATP, 1 minute at room temperature
# Description: as §1
# ULTRA-GLO™ luciferase = test: Inhibition of luciferase activity by dehydroluciferins; assay type: biochemical; conditions: titrated from 0.25 mM in 0.25 mM racemic luciferin, 0.1 mM ATP, 1 minute
# Description: Inhibition of luciferase activity by dehydroluciferins: ULTRA-GLO™ luciferase (Promega, 0.1 mg/mL)+0.1% PRIONEX® in detection reagent buffer was prepared. The solution was divided into 2 portions with 0.25 mM Racemic H-Luciferin added to one portion and 0.25 mM racemic NH2 luciferin to the other portion. H-dehydroluciferin (0.25 mM) was added to an aliquot of the racemic H-Luciferin solution, and NH2-dehydroluciferin (0.25 mM) was added to an aliquot of the racemic NH2 luciferin solution. 2× serial dilutions of each of the dehydroluciferin samples were prepared using the racemic solutions as a diluent (500 μL of dehydroluciferin solution added to 500 μL of ULTRA-GLO™+racemic luciferin). 50 μL of each titration series was then added to […] 0.1 mM ATP. The samples were incubated for 1 minute, and the luminescence was measured on GLOMAX®-Multi+ plate luminometer (n=6).
# [1] = tested on: firefly or click beetle luciferases; conditions: Branchini et al., J. Am. Chem. Soc. 2002; cited from earlier work
# [2] = Thermal stability of luciferin stock solutions at 60° C. by RP-HPLC; conditions: stock solution pH=6.0, 7.0 mM; for Thermal stability (decomposition in solution): detergents, ULTRA-GLO luciferase 0.1 mg/mL
# [3] = tested on: recombinant beetle luciferases; conditions: only the D-form; Viviani et al., Biochemistry 2014; cited from earlier work
Structure (SMILES),RLU% (RLU normalized to the one generated by 1 mM racemic luciferins under identical conditions) (UltraGlo luciferase),further results
"CCC1(CC)SC(c2nc3cc(F)c(O)cc3s2)=NC1C(=O)O (stereo not drawn) [CS0388, 5,5-diethyl-2-(5-fluoro-6-hydroxybenzo[d]thiazol-2-yl)-4,5-dihydrothiazole-4-carboxylic acid]",0.64%,Luminescence as substrate (UltraGlo™ luciferase): measurable luminescence values
"O=C(O)C1N=C(c2nc3ccc(O)cc3s2)SC1(Cc1ccccc1)Cc1ccccc1 (stereo not drawn) [CS0396, 5,5-dibenzyl-2-(6-hydroxybenzo[d]thiazol-2-yl)-4,5-dihydrothiazole-4-carboxylic acid]",1.0%,Luminescence as substrate (UltraGlo™ luciferase): measurable luminescence values
"CCCC1(CCC)SC(c2nc3ccc(O)cc3s2)=NC1C(=O)O (stereo not drawn) [CS0427, 2-(6-hydroxybenzo[d]thiazol-2-yl)-5,5-dipropyl-4,5-dihydrothiazole-4-carboxylic acid]",0.16%,
O=C(O)c1csc(-c2nc3ccc(O)cc3s2)n1 [H-dehydroluciferin],,Inhibition of luciferase activity (ULTRA-GLO™ luciferase): potent inhibitors
"CC1(C)SC(c2nc3ccc(O)cc3s2)=NC1C(=O)O (stereo not drawn) [III-a, 2-(6-hydroxybenzo[d]thiazol-2-yl)-5,5-dimethyl-4,5-dihydrothiazole-4-carboxylic acid]",,Light production via luciferase mediated processes [1]: incapable of producing light; Thermal stability (decomposition in solution) [2]: virtually no decomposition; also recorded: more thermally stable than the unsubstituted luciferin
"CC1(C)SC(c2nc3ccc(N)cc3s2)=NC1C(=O)O (stereo not drawn) [III-b, 2-(6-aminobenzo[d]thiazol-2-yl)-5,5-dimethyl-4,5-dihydrothiazole-4-carboxylic acid]",,Light production [3]: produce light; Thermal stability (decomposition in solution) [2]: virtually no decomposition; also recorded: more thermally stable than the unsubstituted luciferin
Nc1ccc2nc(-c3nc(C(=O)O)cs3)sc2c1 [NH2-dehydroluciferin],,Inhibition of luciferase activity (ULTRA-GLO™ luciferase): potent inhibitors
O=C(O)[C@H]1CSC(c2nc3ccc(O)cc3s2)=N1 [unsubstituted luciferin],,Thermal stability (decomposition in solution) [2]: significant decomposition; Major degradation product ([2]; with or without ULTRA-GLO luciferase): dehydroluciferin

# Second part, led by results:
RLU% (RLU normalized to the one generated by 1 mM racemic luciferins under identical conditions) (UltraGlo luciferase),Structure (SMILES),further results
0.22%,"O=C(O)C1N=C(c2nc3ccc(O)cc3s2)SC12CCCCC2 (stereo not drawn) [CS0325, 2-(6-hydroxybenzo[d]thiazol-2-yl)-1-thia-3-azaspiro[4.5]dec-2-ene-4-carboxylic acid]",
0.43%,"O=C(O)C1N=C(c2nc3ccc(O)cc3s2)SC12CCCC2 (stereo not drawn) [CS0326, 2-(6-hydroxybenzo[d]thiazol-2-yl)-1-thia-3-azaspiro[4.4]non-2-ene-4-carboxylic acid]",
0.29%,"O=C(O)C1N=C(c2nc3ccc(O)cc3s2)SC12CCC2 (stereo not drawn) [CS0329, 6-(6-hydroxybenzo[d]thiazol-2-yl)-5-thia-7-azaspiro[3.4]oct-6-ene-8-carboxylic acid]",
0.60%,"CCC1(CC)SC(c2nc3ccc(O)cc3s2)=NC1C(=O)O (stereo not drawn) [CS0330, 5,5-diethyl-2-(6-hydroxybenzo[d]thiazol-2-yl)-4,5-dihydrothiazole-4-carboxylic acid]",
0.27%,"O=C(O)C1N=C(c2nc3ccc(O)cc3s2)SC12CC2 (stereo not drawn) [CS0333, 5-(6-hydroxybenzo[d]thiazol-2-yl)-4-thia-6-azaspiro[2.4]hept-5-ene-7-carboxylic acid]",
0.13%,"O=C(O)C1N=C(c2nc3cc(F)c(O)cc3s2)SC12CCCCC2 (stereo not drawn) [CS0392, 2-(5-fluoro-6-hydroxybenzo[d]thiazol-2-yl)-1-thia-3-azaspiro[4.5]dec-2-ene-4-carboxylic acid]",Luminescence as substrate (UltraGlo™ luciferase): measurable luminescence values
0.13%,"O=C(O)C1N=C(c2nc3ccc(O)cc3s2)SC12CCCCCC2 (stereo not drawn) [CS0397, 2-(6-hydroxybenzo[d]thiazol-2-yl)-1-thia-3-azaspiro[4.6]undec-2-ene-4-carboxylic acid]",
0.31%,"CC1CCC2(CC1)SC(c1nc3ccc(O)cc3s1)=NC2C(=O)O (stereo not drawn) [CS0404, 2-(6-hydroxybenzo[d]thiazol-2-yl)-8-methyl-1-thia-3-azaspiro[4.5]dec-2-ene-4-carboxylic acid]",
0.20%,"CN1CCC2(CC1)SC(c1nc3ccc(O)cc3s1)=NC2C(=O)O (stereo not drawn) [CS0420, 2-(6-hydroxybenzo[d]thiazol-2-yl)-8-methyl-1-thia-3,8-diazaspiro[4.5]dec-2-ene-4-carboxylic acid]",
0.09%,"O=C(O)C1N=C(c2nc3ccc(O)cc3s2)SC12CCOCC2 (stereo not drawn) [CS0439, 2-(6-hydroxybenzo[d]thiazol-2-yl)-8-oxa-1-thia-3-azaspiro[4.5]dec-2-ene-4-carboxylic acid]",
